Patent US12291522B2, “Galectin-3 inhibitors” (BRISTOL-MYERS SQUIBB COMPANY, priority 2020, dated 2025)
Where two headings read alike, the source gives them in different places.

Key:
[1] = molecular target: His-tagged recombinant human Gal-3 (hGal-3) (Homo sapiens, UniProt P17931); assay: Gal-3 HTRF assay (His-tagged hGal-3 / B-ASF); type: binding; settings: 15 nM hGal-3, 15 nM B-ASF
Protocol: ASSAY BUFFER Composition: 25 mM HEPES, 100 mM NaCl, 0.005% Tween 20, 0.05% BSA prepared in sterile water (all reagents from Sigma).
• Positive Control: 100% DMSO (1 μL)+His-tagged hGal-3 (20 μL)+B-ASF (20 μL)+Anti-His Terbium Antibody (5 μL)+Strep d2 Antibody (5 μL). • Negative Control: 100% DMSO (1 μL)+His-tagged hGal-3 (20 μL)+Anti His Terbium Antibody (5 μL)+Strep d2 Aantibody (5 μL). Stocks Preparation:
PROTOCOL: The Gal-3 assays were performed in 384 white Opti plates in three replicates at room temperature with gentle shaking at 250-300 rpmFrom the original stocks, […] working stock concentrations of His-tagged recombinant human Gal-3 (hGal-3) and that of B-ASF were prepared. From the working stock, 20 μL of hGal-3 (15 nM) and 20 μL B-ASF (15 nM) were added to the plates. In Negative Control, only hGal-3 was added. A concentration range of 50× working stocks were prepared for the compounds in 100% DMSO. Aliquots of luL of the compounds were added to the wells and pre-incubated with 20 μL hGal-3 per well for 30 minutes Then 20 μL B-ASF wereadded and incubated for another 1 hour. To detect the signal, 5 μL (final conc. of 1.0 nM) terbium labelled Anti-His antibody was added and incubated for 30 min followed by adding 5 μL (final conc. of 20 nM) Streptavidin d2 and incubation for another 1 hour. The assay signal was detected using HTRF screen protocol (Excitation wavelength=340 nm, emission wavelength=615 nm/665 nm) on Envision 2104 Multilabel Reader. Data analysed using Toolset and Curve Master. Results are reported in the experimental section (IC50 in μM).

[2] = molecular target: T1, hCRBN (NanoLuc-CRBN fusion construct in HEK-293 cells) (Homo sapiens, UniProt Q96SW2); assay: CRBN BRET Target Engagement; type: cell-based; settings: NanoLuc-CRBN transfected HEK-293 cells, BRET with CRBN Probe
T1 construct: expressed in transfected cells; host or cells: HEK-293
T1 sequence (Q96SW2 whole entry, the tested form may be a part): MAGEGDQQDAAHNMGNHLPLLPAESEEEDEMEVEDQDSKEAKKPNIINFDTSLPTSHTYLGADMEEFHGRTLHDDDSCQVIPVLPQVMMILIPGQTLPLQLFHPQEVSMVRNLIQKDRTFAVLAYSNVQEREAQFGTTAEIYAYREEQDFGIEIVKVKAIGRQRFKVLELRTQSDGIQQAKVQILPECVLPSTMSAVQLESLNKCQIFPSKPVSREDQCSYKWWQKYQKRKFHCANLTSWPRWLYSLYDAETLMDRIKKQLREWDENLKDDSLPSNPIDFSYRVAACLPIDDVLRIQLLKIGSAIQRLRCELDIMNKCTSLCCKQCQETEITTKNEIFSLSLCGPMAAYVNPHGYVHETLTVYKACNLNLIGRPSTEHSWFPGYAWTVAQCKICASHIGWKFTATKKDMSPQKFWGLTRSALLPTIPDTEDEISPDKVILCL
Protocol: CRBN BRET Target Engagement (hCRBN IC50 (μM))
NanoLuc-CRBN fusion construct was transfected in HEK-293 cells using FuGENE HD (Promega) according to the manufacturer's protocol. In brief, Nluc-CRBN was diluted into Transfection Carrier DNA (Promega) 1:10 (mass/mass), to which FuGENE HD was 1:3 (μg DNA:μL FuGENE HD). One part (vol) of DNA:FuGENE HD complexes were combined with 20 parts (vol) of HEK-293 cells suspended at a density of […]. Cells were incubated for ˜20 hr at 37° C./5% CO2. Following transfection, cells were washed and resuspended at 200,000 cells/mL in OptiMEM without phenol red (Gibco).
For BRET measurements, cells were seeded in a 384-well nonbinding surface plate (Corning) plate for a final count of 10,000 cells/well. Compounds were dissolved at 10 mM in dimethylsulfoxide (DMSO) and evaluated at eleven concentrations using a high concentration of […]. CRBN Probe was used for equilibrium measurements, employing a final concentration of approximately EC50-80. For live-cell measurements, 20 nM of CRBN Probe was added. For the live-cell assay conditions, the plates were incubated for 2 hours at 37° C./5% CO2. NanoBRET NanoGlo Substrate and Extracellular Nanoluc Inhibitor (Promega) were added according to manufacturer's guidelines. For lytic cell measurements, digitonin was added to the cells to a final concentration of 50 μg/mL and 20 nM of CRBN Probe was added. To measure NanoBRET in permeabilized cells, extracellular Nluc inhibitor was omitted during the detection step. For all BRET experiments, the Envision 2015 (Perkin Elmer) equipped with a BRET2 Enh mirror, BRET 647 nM/75 nM Bandwidth and BC703 460 nM/80 nM Bandwidth filters was used for readouts. Each read was integrated for 0.5 s.
To determine compound potency (IC50), BRET ratios for each dilution series was first normalized to a % Inhibition value via Equation 1, where “S” represents Sample BRET, “B” represents Background BRET, and “T” represents Total BRET. In this equation, the background control (B) consists of NanoLuc-CRBN expressing cells and no CRBN Probe. The total BRET Ratio (T) consists of NanoLuc-CRBN expressing cells, CRBN Probe, and an amount of DMSO at a concentration equivalent to that added when testing compounds.
Following normalization, the percent inhibition values are plotted as a function of compound concentration and fit to Equation 2. […]

[3] = molecular target: T2, Gal3 (Human Galectin-3) in THP-1 cells (Homo sapiens, UniProt P17931); assay: ELISA Gal3 Degradation Assay in THP-1 Cells; type: cell-based; settings: 48 hours, culture media Gal3 by ELISA
T2 construct: host or cells: THP-1
T2 sequence (P17931 whole entry): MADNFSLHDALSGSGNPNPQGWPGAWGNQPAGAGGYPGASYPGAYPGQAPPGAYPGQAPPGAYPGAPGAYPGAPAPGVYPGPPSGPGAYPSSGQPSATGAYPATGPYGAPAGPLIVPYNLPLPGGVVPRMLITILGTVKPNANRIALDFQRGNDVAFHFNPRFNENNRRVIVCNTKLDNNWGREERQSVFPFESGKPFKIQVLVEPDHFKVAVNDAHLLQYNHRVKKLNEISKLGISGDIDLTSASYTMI
Protocol: [formula] ELISA Gal3 Degradation Assay in THP-1 Cells
THP-1 cells (ATCC, Cat #TIB-202), a human monocyte cell line derived from leukemia were plated at 2E6 cells/mL in 200 uL/well of RPMI 1640 (ThermoFisher, Cat #11835) in 96-well plates. Cells were treated with DMSO as a control and various concentrations of compounds for 48 hours. After the treatment, the culture media were collected. The PBS washed cell pellets were lysed in Lysis Buffer (Cell Signaling, Cat #9803) supplemented with 1XProtease Inhibitor Cocktail (Cell Signaling, Cat #5872). Gal3 levels in culture media and cell lysates were quantified by ELISA assays (Human Galectin-3 DuoSet ELISA kit, R&D Systems, Cat #DY1154) according to manufacturer's instructions. The cell culture media were also used for the assessment of cellular toxicity (LDH Assay kit, R&D Systems, DY994). The IC50 (degradation concentration at 50%) values were calculated based on the cellular Gal3 protein levels using DMSO as the control.

[4] = test 1, read-out: Supernatant (IC50) test 1
[5] = test 2, read-out: Supernatant (IC50) test 2

Chain of His-tagged recombinant human Gal-3 (hGal-3) (P17931 whole entry): as above

Row | Compound | IC50 [1] [µM] | IC50 [2] [µM] | IC50 [3, 4] [µM] | IC50 [3, 5] [µM]
1 | Cc1nc([C@@H]2O[C@H](CO)[C@H](O)[C@H](n3cc(-c4cc(F)c(Cl)c(F)c4)nn3)[C@H]2OCC(=O)N2CC(COc3ccc(C(=O)Nc4ccc5c(c4)C(=O)N(C4CCC(=O)NC4=O)C5)cc3)C2)n(-c2cc(Cl)ccc2C(F)(F)F)n1 (stereo partly drawn) [Example 11, 4-((1-(2-(((2S,3R,4S,5R,6R)-2-(1-(5-Chloro-2-(trifluoromethyl)phenyl)-3-methyl-1H-1,2,4-triazol-5-yl)-4-(4-(4-chloro-3,5-difluorophenyl)-1H-1,2,3-triazol-1-yl)-5-hydroxy-6-(hydroxymethyl)tetrahydro-2H-pyran-3-yl)oxy)acetyl)azetidin-3-yl)methoxy)-N-(2-(2,6-dioxopiperidin-3-yl)-3-oxoisoindolin-5-yl)benzamide] | 0.04 | 1.27 | 0.035 | 0.027
2 | Cc1nc([C@@H]2O[C@H](CO)[C@H](O)[C@H](n3cc(-c4cc(F)c(Cl)c(F)c4)nn3)[C@H]2OCC(=O)N[C@H]2C[C@H](Oc3ccc(C(=O)Nc4ccc5c(c4)CN(C4CCC(=O)NC4=O)C5=O)nc3)C2)n(-c2cc(Cl)ccc2C(F)(F)F)n1 (some centres unmarked) [Example 18] | 0.22 | 0.11 | 0.013 | 0.014
3 | Cc1nc([C@@H]2O[C@H](CO)[C@H](O)[C@H](n3cc(-c4cc(F)c(Cl)c(F)c4)nn3)[C@H]2OCC(=O)N[C@H]2C[C@@H](Oc3ccc(C(=O)Nc4cccc5c4CN(C4CCC(=O)NC4=O)C5=O)nc3)C2)n(-c2cc(Cl)ccc2C(F)(F)F)n1 (some centres unmarked) [Example 21] | 0.07 | 0.93 | 1.04 | 0.023
4 | Cc1nc([C@@H]2O[C@H](CO)[C@H](O)[C@H](n3cc(-c4cc(F)c(Cl)c(F)c4)nn3)[C@H]2OCC(=O)N[C@H]2C[C@@H](Oc3ccc(C(=O)Nc4ccc5c(c4)C(=O)N(C4CCC(=O)NC4=O)C5)nc3)C2)n(-c2cc(Cl)ccc2C(F)(F)F)n1 (some centres unmarked) [Example 23] | 0.042 | 0.07 | 0.019 | < 0.01
5 | Cc1nc([C@@H]2O[C@H](CO)[C@H](O)[C@H](n3cc(-c4cc(F)c(Cl)c(F)c4)nn3)[C@H]2OCCOc2ccc(C(=O)Nc3ccc4c(c3)CN(C3CCC(=O)NC3=O)C4=O)cc2)n(-c2cc(Cl)ccc2C(F)(F)F)n1 (some centres unmarked) [Example 25] | 0.139 | 2.69 | 1.7 | 0.522
6 | Cc1nc([C@@H]2O[C@H](CO)[C@H](O)[C@H](n3cc(-c4cc(F)c(Cl)c(F)c4)nn3)[C@H]2OCC(=O)N2CC(COc3ccc(C(=O)Nc4ccc5c(c4)CN(C4CCC(=O)NC4=O)C5=O)nc3)C2)n(-c2cc(Cl)ccc2C(F)(F)F)n1 (some centres unmarked) [Example 26] | 0.085 | 0.251 | 0.009 | 0.009
7 | Cc1nc([C@@H]2O[C@H](CO)[C@H](O)[C@H](n3cc(-c4cc(F)c(Cl)c(F)c4)nn3)[C@H]2OCC(=O)N2CCC(COc3ccc(C(=O)Nc4ccc5c(c4)CN(C4CCC(=O)NC4=O)C5=O)cc3)CC2)n(-c2cc(Cl)ccc2C(F)(F)F)n1 (some centres unmarked) [Example 27] | 0.312 | 0.374 | – | 0.04
8 | Cc1nc([C@@H]2O[C@H](CO)[C@H](O)[C@H](n3cc(-c4cc(F)c(Cl)c(F)c4)nn3)[C@H]2OCC(=O)N2CC(COc3ccc(C(=O)Nc4cccc5c4CN(C4CCC(=O)NC4=O)C5=O)cc3)C2)n(-c2cc(Cl)ccc2C(F)(F)F)n1 (some centres unmarked) [Example 30] | 0.086 | 10.6 | 0.854 | 0.05
9 | Cc1nc([C@@H]2O[C@H](CO)[C@H](O)[C@H](n3cc(-c4cc(F)c(Cl)c(F)c4)nn3)[C@H]2OCC(=O)N2CCC(Oc3ccc(C(=O)Nc4ccc5c(c4)CN(C4CCC(=O)NC4=O)C5=O)cc3)CC2)n(-c2cc(Cl)ccc2C(F)(F)F)n1 (some centres unmarked) [Example 31] | 0.139 | 0.447 | 0.05 | 0.014
10 | Cc1nc([C@@H]2O[C@H](CO)[C@H](O)[C@H](n3cc(-c4cc(F)c(Cl)c(F)c4)nn3)[C@H]2OCC(=O)N2CC(COc3ccc(C(=O)Nc4cccc5c4CN(C4CCC(=O)NC4=O)C5=O)nc3)C2)n(-c2cc(Cl)ccc2C(F)(F)F)n1 (some centres unmarked) [Example 32] | 0.094 | 13.7 | 1.25 | 1.58
11 | Cc1nc([C@@H]2O[C@H](CO)[C@H](O)[C@H](n3cc(-c4cc(F)c(Cl)c(F)c4)nn3)[C@H]2OCC(=O)N2CC3(CC(Oc4ccc(C(=O)Nc5ccc6c(c5)CN(C5CCC(=O)NC5=O)C6=O)cc4)C3)C2)n(-c2cc(Cl)ccc2C(F)(F)F)n1 (some centres unmarked) [Example 34] | 0.11 | 1.02 | 4.58 | 0.21
12 | Cc1nc([C@@H]2O[C@H](CO)[C@H](O)[C@H](n3cc(-c4cc(F)c(Cl)c(F)c4)nn3)[C@H]2OCC(=O)N2CC(Oc3ccc(C(=O)Nc4ccc5c(c4)CN(C4CCC(=O)NC4=O)C5=O)nc3)C2)n(-c2cc(Cl)ccc2C(F)(F)F)n1 (some centres unmarked) [Example 35] | 0.077 | 0.498 | 0.314 | 0.338
